Legend:
Type in all cases: cell-based, human
[1] = tested on: PECAM-1 (CD31); assay: TRAP-stimulated whole blood flow cytometry, PECAM-1; conditions: Mean ± SD
Method: (§1) The methodology employed was conventional aggregation induced by 5 μM ADP, 1 μg/ml collagen, 10 μM TRAP, whole blood aggregation with 1 μg/ml collagen, Ultegra, and PFA-100 Analyzers, expression of 14 intact, and TRAP-stimulated major receptors by whole blood flow cytometry were utilized to assess platelet activity after preincubation with escalating concentrations of E5555 (20 ng/ml, 50 ng/ml, and 100 ng/ml). The experiments were performed in healthy volunteers, CAD patients treated with ASA, and CAD patients treated with ASA and clopidogrel combination (n=10, for each group).
(§2) An Informed Consent was obtained from all volunteers. Drug users were excluded from data analysis. The study was approved by Quorum Institutional Review Board. All subjects underwent blood sampling after at least 30 minutes of rest and two or more hours of fasting. Blood (28 ml) was drawn between 8 and 10 a.m. in order to avoid any diurnal influence and sampled from an antecubital vein using a 21-gauge butterfly needle containing 3.2% sodium citrate (1:9 volume) after having discarded the first 1.5 ml of free running blood. Four Vacutainer tubes (7.0 ml) were collected for a total of 28 ml of whole blood-citrate mixture from each study participant. Chronologically, blood samples were delivered to the core laboratory facility within 45 minutes after drawing. Then all tubes of blood-citrate mixture were pooled. One portion of pooled blood (5 ml) was kept as an internal control and pretreated with the vehicle. The remaining blood (23 ml) was used for the in vitro exposure to E5555 at concentrations of 20 ng/ml, 50 ng/ml, and 100 ng/ml. […] The platelet aggregation studies, Rapid Analyzers measures, and flow cytometry preparations were initiated within no more than 110 minutes following the blood draw, incubation with the drug, and preparation of the samples.
(§3) Formation of platelet-leukocyte aggregates was assessed by dual labeling with pan-platelet marker (CD151), and then with CD14, the macrophage receptor for endotoxin lipopolysaccharides (PharMingen, and Coulter, San Diego, Calif., USA). The tubes were then covered with aluminum foil and incubated at 37° C. for 40 minutes with gentle rotation. After incubation, samples were immediately analyzed on a Becton Dickinson FACScan flow cytometer. The instrument was set up to measure forward light scatter, and FITC fluorescence. All parameters were collected using four-decade logarithmic amplification. The data was retrieved in list mode files and then analyzed. P selectin was expressed as percent positive cells. Other antigens were expressed as log mean fluorescence intensity.
(§4) For flow cytometry (TRAP-stimulated) all of the above flow cytometry experiments were identically repeated utilizing prestimulation with 10 μmol/L TRAP for 5 minutes at 37° C. To determine statistics, a Paired Sign Test was used to define significance of differences between vehicle and E5555-treated groups. The Mann-Whitney U test was used to analyze nonparametric data. Normally distributed data were expressed as mean±standard error (m±SE), and skewed data as median (range). All P-values were two sided. All analysis was performed using the SPSS v9.0 program (SPSS Inc., Chicago, Ill.).

[2] = tested on: Thrombospondin-Receptor (CD36); assay: Unstimulated whole blood flow cytometry, thrombospondin receptor; conditions: for Thrombospondin-Receptor (CD36), Mean Fluorescence Intensity: unstimulated, Mean ± SD
Method: as §1, §2, §3

[3] = tested on: WEDE15; assay: Unstimulated whole blood flow cytometry, WEDE15; conditions: Mean ± SD
Method: as §1, §2, §3

[4] = tested on: VTNR (CD51/61); assay: TRAP-stimulated whole blood flow cytometry, vitronectin receptor; conditions: Mean ± SD
Method: as §1, §2, §3, §4

[5] = tested on: SPAN-12; assay: Unstimulated whole blood flow cytometry, SPAN-12; conditions: Mean ± SD
Method: as §1, §2, §3

[6] = E5555 20 ng/ml, Patients (ASA + C)
[7] = E5555 50 ng/ml, Patients (ASA + C)
[8] = E5555 100 ng/ml, Patients (ASA + C)
[9] = E5555 100 ng/ml, Patients (ASA)

Br.CCOc1cc2c(c(F)c1OCC)C(=N)N(CC(=O)c1cc(N3CCOCC3)c(OC)c(C(C)(C)C)c1)C2 [E5555, 1-(3-tert-butyl-4-methoxy-5-morpholinophenyl)-2-(5,6-diethoxy-7-fluoro-1-imino-1,3-dihydro-2H-isoindol-2-yl)ethanone hydrobromide]
PECAM-1 (CD31), Mean Fluorescence Intensity [1, 6]: 58 ± 9 MFI | PECAM-1 (CD31), Mean Fluorescence Intensity ([1]; E5555 20 ng/ml, Patients (ASA)): 50 ± 6 MFI | PECAM-1 (CD31), Mean Fluorescence Intensity ([1]; E5555 20 ng/ml, Volunteers): 60 ± 9 MFI | PECAM-1 (CD31), Mean Fluorescence Intensity [1, 7]: 60 ± 7 MFI | PECAM-1 (CD31), Mean Fluorescence Intensity ([1]; E5555 50 ng/ml, Patients (ASA)): 54 ± 9 MFI | PECAM-1 (CD31), Mean Fluorescence Intensity ([1]; E5555 50 ng/ml, Volunteers): 55 ± 10 MFI | PECAM-1 (CD31), Mean Fluorescence Intensity [1, 8]: 57 ± 11 MFI | PECAM-1 (CD31), Mean Fluorescence Intensity [1, 9]: 52 ± 12 MFI | PECAM-1 (CD31), Mean Fluorescence Intensity ([1]; E5555 100 ng/ml, Volunteers): 60 ± 7 MFI | thrombospondin receptor expression, effect in words ([2]; overall summary, stimulation not stated): significant reduction | Thrombospondin-Receptor (CD36), Mean Fluorescence Intensity [2, 6]: 6.8 ± 1.9 MFI | Thrombospondin-Receptor (CD36), Mean Fluorescence Intensity ([2]; E5555 20 ng/ml, Patients (ASA)): 7.2 ± 0.5 MFI | Thrombospondin-Receptor (CD36), Mean Fluorescence Intensity ([2]; E5555 20 ng/ml, Volunteers): 8.4 ± 1.1 MFI | Thrombospondin-Receptor (CD36), Mean Fluorescence Intensity [2, 7]: 7.0 ± 1.0 MFI | Thrombospondin-Receptor (CD36), Mean Fluorescence Intensity ([2]; E5555 50 ng/ml, Patients (ASA)): 7.0 ± 0.7 MFI | Thrombospondin-Receptor (CD36), Mean Fluorescence Intensity ([2]; E5555 50 ng/ml, Volunteers): 8.2 ± 0.8 MFI | Thrombospondin-Receptor (CD36), Mean Fluorescence Intensity [2, 8]: 7.1 ± 1.2 MFI | Thrombospondin-Receptor (CD36), Mean Fluorescence Intensity [2, 9]: 7.4 ± 0.9 MFI | Thrombospondin-Receptor (CD36), Mean Fluorescence Intensity ([2]; E5555 100 ng/ml, Volunteers): 8.4 ± 1.0 MFI | WEDE15, Mean Fluorescence Intensity [3, 6]: 30 ± 8 MFI | WEDE15, Mean Fluorescence Intensity ([3]; E5555 20 ng/ml, Patients (ASA)): 40 ± 11 MFI | WEDE15, Mean Fluorescence Intensity ([3]; E5555 20 ng/ml, Volunteers): 40 ± 9 MFI | WEDE15, Mean Fluorescence Intensity [3, 7]: 27 ± 6 MFI | WEDE15, Mean Fluorescence Intensity ([3]; E5555 50 ng/ml, Patients (ASA)): 38 ± 8 MFI | WEDE15, Mean Fluorescence Intensity ([3]; E5555 50 ng/ml, Volunteers): 41 ± 6 MFI | WEDE15, Mean Fluorescence Intensity [3, 8]: 29 ± 12 MFI | WEDE15, Mean Fluorescence Intensity [3, 9]: 35 ± 5 MFI | WEDE15, Mean Fluorescence Intensity ([3]; E5555 100 ng/ml, Volunteers): 40 ± 10 MFI | VTNR (CD51/61), Mean Fluorescence Intensity [4, 6]: 10.2 ± 1.5 MFI | VTNR (CD51/61), Mean Fluorescence Intensity ([4]; E5555 20 ng/ml, Patients (ASA)): 10.8 ± 2.1 MFI | VTNR (CD51/61), Mean Fluorescence Intensity ([4]; E5555 20 ng/ml, Volunteers): 10.4 ± 1.3 MFI | VTNR (CD51/61), Mean Fluorescence Intensity [4, 7]: 10.9 ± 1.6 MFI | VTNR (CD51/61), Mean Fluorescence Intensity ([4]; E5555 50 ng/ml, Patients (ASA)): 10.5 ± 1.3 MFI | VTNR (CD51/61), Mean Fluorescence Intensity ([4]; E5555 50 ng/ml, Volunteers): 10.1 ± 1.7 MFI | VTNR (CD51/61), Mean Fluorescence Intensity [4, 8]: 11.0 ± 2.0 MFI | VTNR (CD51/61), Mean Fluorescence Intensity [4, 9]: 9.9 ± 1.3 MFI | VTNR (CD51/61), Mean Fluorescence Intensity ([4]; E5555 100 ng/ml, Volunteers): 10.7 ± 1.5 MFI | SPAN-12, Mean Fluorescence Intensity [5, 6]: 11 ± 4 MFI | SPAN-12, Mean Fluorescence Intensity ([5]; E5555 20 ng/ml, Patients (ASA)): 14 ± 3 MFI | SPAN-12, Mean Fluorescence Intensity ([5]; E5555 20 ng/ml, Volunteers): 19 ± 4 MFI | SPAN-12, Mean Fluorescence Intensity [5, 7]: 10 ± 6 MFI | SPAN-12, Mean Fluorescence Intensity ([5]; E5555 50 ng/ml, Patients (ASA)): 11 ± 5 MFI

Reference: patent US20100056519A1, “COMPOSITION AND METHOD FOR REDUCING PLATELET ACTIVATION AND FOR THE TREATMENT OF THROMBOTIC EVENTS” (priority 2008, published 2010)
